Experiments:
[1] = molecular target: T1, Sodium channel protein type 9 subunit alpha (Homo sapiens, UniProt Q15858); experiment: In Vitro Assay: 293 Cells stably transfected with either Nav 1.7 or Nav 1.5 were recorded in population patch-clamp mode with the IonWorks Quattro automated electrophysiology system in accordance with the manufacturer's specifications (Molecular Devices, LLC, Sunnyvale, Calif.). Sodium channel currents were measured in response to a train of depolarizations that induced successively greater inactivation.Cells were held at -110 mV for three seconds (Nav 1.7) or half a second (Nav 1.5) from a holding voltage of -15 mV, then put through a series of 26 pulses of 150 msec duration to -20 mV at a frequency of 5 Hz. Cells were then left unclamped for a period of 3 to 8 minutes while a single concentration of test compound was added. Cells were then reclamped and put through the same voltage protocol. Current at the end of the 26th pulse to -20 mV was subtracted from the peak current evoked by the 26th pulse to -20 mV to correct for leak current.
[2] = molecular target: T1, Sodium channel protein type 9 subunit alpha; experiment: In Vitro PX Assay: 293 cells stably transfected with human Nav1.7 were recorded in whole cell voltage clamp mode with the PatchXpress automated electrophysiology system (Molecular Devices, LLC, Sunnyvale, Calif.). Compound effects were measured on a partially inactivated state of the sodium channel. Cells were clamped to a holding potential yielding 20 to 50% inactivation. To elicit sodium current, channels were activated by pulsing to −10 mV for 20 msec. This voltage protocol was repeated at a rate of 0.1 Hz throughout the experiment. A single concentration of test compound was applied to cells for a duration of 3 minutes. Peak sodium current was measured at the end of the compound addition period to determine percent inhibition.; assay type: cell-based

T1 sequence (Q15858 whole entry): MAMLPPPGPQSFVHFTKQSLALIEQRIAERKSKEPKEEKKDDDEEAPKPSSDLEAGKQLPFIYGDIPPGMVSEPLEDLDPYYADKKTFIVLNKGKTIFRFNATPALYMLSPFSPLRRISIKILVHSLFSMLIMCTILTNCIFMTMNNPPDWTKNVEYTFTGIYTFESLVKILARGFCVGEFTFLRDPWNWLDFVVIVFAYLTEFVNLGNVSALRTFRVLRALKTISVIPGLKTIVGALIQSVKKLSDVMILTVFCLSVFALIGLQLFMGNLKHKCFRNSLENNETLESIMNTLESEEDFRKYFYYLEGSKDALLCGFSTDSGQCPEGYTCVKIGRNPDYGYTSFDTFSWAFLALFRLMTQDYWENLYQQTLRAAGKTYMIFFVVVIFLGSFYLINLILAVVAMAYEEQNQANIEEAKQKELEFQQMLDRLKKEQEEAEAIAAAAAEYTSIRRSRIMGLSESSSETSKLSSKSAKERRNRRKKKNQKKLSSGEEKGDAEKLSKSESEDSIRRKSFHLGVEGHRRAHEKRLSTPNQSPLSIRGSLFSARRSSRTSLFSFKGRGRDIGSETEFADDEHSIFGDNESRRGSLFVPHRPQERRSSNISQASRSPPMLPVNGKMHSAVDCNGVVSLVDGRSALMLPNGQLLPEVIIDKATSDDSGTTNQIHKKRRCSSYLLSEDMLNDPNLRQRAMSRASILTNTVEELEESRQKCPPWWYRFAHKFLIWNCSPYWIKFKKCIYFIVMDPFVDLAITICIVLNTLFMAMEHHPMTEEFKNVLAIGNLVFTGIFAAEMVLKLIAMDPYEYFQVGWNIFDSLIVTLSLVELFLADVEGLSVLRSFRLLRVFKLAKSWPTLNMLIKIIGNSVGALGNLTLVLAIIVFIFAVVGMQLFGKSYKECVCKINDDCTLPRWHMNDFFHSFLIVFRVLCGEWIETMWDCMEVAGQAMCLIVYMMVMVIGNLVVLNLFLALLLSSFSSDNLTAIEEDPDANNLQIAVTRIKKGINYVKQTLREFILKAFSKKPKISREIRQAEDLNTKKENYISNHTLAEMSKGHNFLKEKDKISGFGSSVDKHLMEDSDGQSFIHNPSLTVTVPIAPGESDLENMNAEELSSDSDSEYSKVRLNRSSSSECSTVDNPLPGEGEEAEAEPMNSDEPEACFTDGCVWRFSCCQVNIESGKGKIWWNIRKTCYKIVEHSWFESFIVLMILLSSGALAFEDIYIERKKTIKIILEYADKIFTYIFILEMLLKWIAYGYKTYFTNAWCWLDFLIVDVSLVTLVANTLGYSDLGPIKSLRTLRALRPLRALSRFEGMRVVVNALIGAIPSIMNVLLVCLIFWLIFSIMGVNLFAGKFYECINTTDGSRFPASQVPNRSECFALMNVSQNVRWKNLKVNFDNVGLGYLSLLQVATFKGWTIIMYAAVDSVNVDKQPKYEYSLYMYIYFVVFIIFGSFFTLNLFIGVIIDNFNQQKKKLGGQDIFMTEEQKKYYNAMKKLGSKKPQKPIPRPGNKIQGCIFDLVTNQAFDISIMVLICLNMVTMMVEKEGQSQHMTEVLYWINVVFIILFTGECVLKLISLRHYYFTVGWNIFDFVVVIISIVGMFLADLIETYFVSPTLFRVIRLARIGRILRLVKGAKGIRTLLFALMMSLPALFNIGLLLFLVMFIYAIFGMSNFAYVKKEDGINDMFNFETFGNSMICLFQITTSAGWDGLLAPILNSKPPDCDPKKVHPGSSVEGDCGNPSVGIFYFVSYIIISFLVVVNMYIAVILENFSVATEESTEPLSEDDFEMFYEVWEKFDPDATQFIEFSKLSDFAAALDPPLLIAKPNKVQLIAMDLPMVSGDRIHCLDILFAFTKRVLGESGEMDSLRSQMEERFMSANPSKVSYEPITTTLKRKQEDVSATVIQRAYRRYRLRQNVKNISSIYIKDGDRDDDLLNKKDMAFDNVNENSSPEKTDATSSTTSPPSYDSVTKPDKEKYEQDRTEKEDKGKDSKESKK

Row | IC50 [2] [µM] | Structure (SMILES) | IC50 [1] [nM]
1 |  | Nc1cc(Cl)ccc1-c1cccc2cc(S(=O)(=O)Nc3ncns3)ccc12 | 110
2 |  | Cc1cc(Cl)ccc1-c1cccc2cc(S(=O)(=O)Nc3ncns3)ccc12 | 190
3 |  | O=S(=O)(Nc1ncns1)c1ccc2c(-c3ccc(Cl)cc3)cccc2c1 | 190
4 |  | O=S(=O)(Nc1ncns1)c1ccc2c(-c3ccc(Cl)cc3F)cccc2c1 | 210
5 |  | O=S(=O)(Nc1ncns1)c1ccc2c(-c3ccc(C(F)(F)F)cc3F)cccc2c1 | 210
6 |  | O=S(=O)(Nc1ncns1)c1ccc2c(-c3ccc(C(F)(F)F)cc3)cccc2c1 | 430
7 |  | O=S(=O)(Nc1ncns1)c1ccc2c(-c3ccc(Cl)cc3Cl)nccc2c1 | 70
8 | 10.5 | O=S(=O)(Nc1ncns1)c1ccc2c(N3CCC3c3ccccc3)cccc2c1 (stereo not given) | 3900
9 | 18.3 | COc1cc(Cl)ncc1-c1nccc2cc(S(=O)(=O)Nc3ccncn3)ccc12 | 460
10 | 10.8 | O=S(=O)(Nc1ccncn1)c1ccc2c(-c3cc(C(F)(F)F)ccc3F)nccc2c1 | 570
11 | 0.393 | COc1cc(C)ccc1-c1nccc2cc(S(=O)(=O)Nc3nccs3)ccc12 | 
12 | 13.5 | O=S(=O)(Nc1nccs1)c1ccc2c(-c3ccc(F)cc3Oc3cccnn3)nccc2c1 | 
13 | 1.23 | COc1cc(C#N)ccc1-c1nncc2cc(S(=O)(=O)Nc3nccs3)ccc12 | 260
14 |  | Cc1noc(C)c1-c1nccc2cc(S(=O)(=O)Nc3ccncn3)ccc12 | > 10000
15 | 5.16 | Cc1cnc(OCCOc2ccccc2)c(-c2nccc3cc(S(=O)(=O)Nc4nccs4)ccc23)c1 | 
16 | 5.37 | COc1cc(-c2cccnc2)ccc1-c1nccc2cc(S(=O)(=O)Nc3ccncn3)ccc12 | 
17 | 0.971 | O=S(=O)(Nc1nccs1)c1ccc2c(-c3ccc(C(F)(F)F)cc3Cl)ncnc2c1 | 

Row | Structure (SMILES) | IC50 [2] [µM] | IC50 [1] [nM]
18 | CN1CCC(c2cc(C(F)(F)F)ccc2-c2cccc3cc(S(=O)(=O)Nc4ncc(F)s4)ccc23)CC1 | 0.282 | 150
19 | O=S(=O)(Nc1nccs1)c1ccc2c(N3CCN(c4ccc(Cl)c(Cl)c4)CC3)nccc2c1 | 10.9 | 
20 | O=S(=O)(Nc1ccncn1)c1ccc2c(-c3ccc(-c4cccc(F)c4)cc3)nccc2c1 | 4.5 | 

Source: ChEMBL document CHEMBL3638921, “Bicyclic aryl and heteroaryl sodium channel inhibitors” (2015)
